Key:
wheat [1] = experiment: Test A preemergence; format: in vivo, Triticum aestivum; conditions: preemergence
Outline: (§1)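 Greenhouse test in loam soil/sand blend; compounds formulated in non-phytotoxic solvent with surfactant, applied as preemergence directed soil spray or postemergence to plants 2–10 cm tall at one- to two-leaf stage. Injury rated visually versus untreated controls after approximately 10 days on a 0 (no effect) to 100 (complete control) scale.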

crabgrass, large = experiment: Test A postemergence; format: in vivo, Digitaria sanguinalis
Outline: as §1

foxtail, giant = experiment: Test A postemergence; format: in vivo, Setaria faberii
Outline: as §1

morningglory = experiment: Test A postemergence; format: in vivo, Ipomoea spp.
Outline: as §1

velvetleaf [2] = experiment: Test A postemergence; format: in vivo, Abutilon theophrasti
Outline: as §1

corn [3] = experiment: Test A postemergence; format: in vivo, Zea mays
Outline: as §1

pigweed = experiment: Test C preemergence; format: in vivo, Amaranthus retroflexus
Outline: (§2)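 Visual rating, 0–100 scale (0 no effect, 100 complete control), vs untreated controls after 13–15 d greenhouse. Pre: seeds in loam/sand, treated at sowing. Post: plants in peat-based mix, 1- to 4-leaf (2–18 cm). Solvent + surfactant formulation, non-phytotoxic.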

ragweed [4] = experiment: Test C preemergence; format: in vivo, Ambrosia elation
Outline: as §2

soybean [5] = experiment: Test C preemergence; format: in vivo, Glycine max
Outline: as §2

wheat [6] = experiment: Test C postemergence; format: in vivo, Triticum aestivum; conditions: for Plant response rating (scale of 0 to 100 where 0 is no effect and 100 is complete control), Wheat: 31 g ai/ha, visually evaluated after 13 to 15 days; for Wheat plant response rating / Plant response rating, Wheat: postemergence; for Wheat plant response rating: 62 g ai/ha, scale 0 to 100
Outline: as §2

corn [7] = experiment: Test C postemergence; format: in vivo, Zea mays; conditions: for Plant response rating (scale of 0 to 100 where 0 is no effect and 100 is complete control), Corn: 31 g ai/ha, visually evaluated after 13 to 15 days; for Corn plant response rating / Plant response rating, Corn: postemergence; for Corn plant response rating: 62 g ai/ha, scale 0 to 100; for Plant response rating, Corn: 125 g ai/ha, scale 0 to 100, 0 no effect, 100 complete control
Outline: as §2

lambsquarters = experiment: Test C postemergence; format: in vivo, Chenopodium album; conditions: for Plant response rating (scale of 0 to 100 where 0 is no effect and 100 is complete control), Lambsquarters: 31 g ai/ha, visually evaluated after 13 to 15 days; for Lambsquarters plant response rating / Plant response rating, Lambsquarters: postemergence; for Lambsquarters plant response rating: 62 g ai/ha, scale 0 to 100
Outline: as §2

ragweed [8] = experiment: Test C postemergence; format: in vivo, Ambrosia elation; conditions: for Plant response rating (scale of 0 to 100 where 0 is no effect and 100 is complete control), Ragweed: 31 g ai/ha, visually evaluated after 13 to 15 days; for Ragweed plant response rating / Plant response rating, Ragweed: postemergence; for Ragweed plant response rating: 62 g ai/ha, scale 0 to 100
Outline: as §2

soybean [9] = experiment: Test C postemergence; format: in vivo, Glycine max; conditions: for Plant response rating (scale of 0 to 100 where 0 is no effect and 100 is complete control), Soybean: 31 g ai/ha, visually evaluated after 13 to 15 days; for Soybean plant response rating / Plant response rating, Soybean: postemergence; for Soybean plant response rating: 62 g ai/ha, scale 0 to 100
Outline: as §2

waterhemp = experiment: Test C postemergence; format: in vivo, Amaranthus rudis; conditions: for Plant response rating (scale of 0 to 100 where 0 is no effect and 100 is complete control), Waterhemp: 31 g ai/ha, visually evaluated after 13 to 15 days; for Waterhemp plant response rating / Plant response rating, Waterhemp: postemergence; for Waterhemp plant response rating: 62 g ai/ha, scale 0 to 100
Outline: as §2

velvetleaf [10] = experiment: Test C postemergence; format: in vivo, Abutilon theophrasti; conditions: for Plant response rating (scale of 0 to 100 where 0 is no effect and 100 is complete control), Velvetleaf: 31 g ai/ha, visually evaluated after 13 to 15 days; for Velvetleaf plant response rating / Plant response rating, Velvetleaf: postemergence; for Velvetleaf plant response rating: 62 g ai/ha, scale 0 to 100
Outline: as §2

[11] = 125 g ai/ha, visual injury, 0 to 100 scale, approx. 10 days
[12] = 500 g ai/ha, visual injury after approx. 10 days, 0 to 100 scale (0 no effect, 100 complete control)
[13] = Postemergence, 500 g ai/ha, visual rating after approx. 10 days, 0 to 100 scale (0 no effect, 100 complete control)
[14] = postemergence, 125 g ai/ha, about 10 days, visual rating on 0 to 100 scale (0 no effect, 100 complete control)
[15] = Preemergence, 16 g ai/ha, scale 0 to 100
[16] = preemergence, 31 g ai/ha, scale 0 to 100 (0 no effect, 100 complete control), 13 to 15 days
[17] = preemergence, 62 g ai/ha, 13 to 15 days, scale 0 to 100, 0 = no effect, 100 = complete control
[18] = preemergence, 125 g ai/ha, scale 0 to 100, 0 is no effect, 100 is complete control
[19] = 125 g ai/ha, scale 0 to 100, 0 no effect, 100 complete control
[20] = 250 g ai/ha, scale 0 to 100 (0 no effect, 100 complete control)

With `CCONC(=O)c1cc(CC)n(Cc2ccnc(C(F)(F)F)c2)n1` [Compound 77] the “Wheat plant response rating” value (wheat [1]; [11]) was 20, the “Wheat plant response rating” value (wheat [1]; [12]) was 40 and the “Crabgrass, Large plant response rating” value (crabgrass, large; [13]) was 100. The “Crabgrass, Large plant response rating” value (crabgrass, large; [14]) was 90, the “Foxtail, Giant plant response rating” value (foxtail, giant; [13]) was 100 and the “Foxtail, Giant plant response rating” value (foxtail, giant; [14]) was 90. The “Morningglory plant response rating” value (morningglory; [13]) was 90, the “Morningglory plant response rating” value (morningglory; [14]) was 100 and the “Velvetleaf plant response rating” value (velvetleaf [2]; [13]) was 100. For the same molecule, the “Velvetleaf plant response rating” value (velvetleaf [2]; [14]) was 80, the “Corn plant response rating” value (corn [3]; [13]) was 40 and the “Corn plant response rating” value (corn [3]; [14]) was 30. For the same molecule, the “Plant response rating, Pigweed” value (pigweed; [15]) was 70, the “Pigweed plant response rating” value (pigweed; [16]) was 100 and the “Plant response rating, Pigweed” value (pigweed; [17]) was 100. The “Pigweed plant response rating” value (pigweed; [18]) was 100, the “Plant response rating, Ragweed” value (ragweed [4]; [15]) was 10 and the “Ragweed plant response rating” value (ragweed [4]; [16]) was 35. The “Plant response rating, Ragweed” value (ragweed [4]; [17]) was 70, the “Ragweed plant response rating” value (ragweed [4]; [18]) was 85 and the “Plant response rating, Soybean” value (soybean [5]; [15]) was 0. The “Soybean plant response rating” value (soybean [5]; [16]) was 10, the “Plant response rating, Soybean” value (soybean [5]; [17]) was 20 and the “Soybean plant response rating” value (soybean [5]; [18]) was 50. The “Plant response rating (scale of 0 to 100), Wheat” value (wheat [6]; Postemergence, 16 g ai/ha) was 0, the “Plant response rating (scale of 0 to 100 where 0 is no effect and 100 is complete control), Wheat” value (wheat [6]; Postemergence) was 0 and the “Wheat plant response rating” value (wheat [6]) was 5. The “Plant response rating, Wheat” value (wheat [6]; [19]) was 5, the “Plant response rating (scale of 0 to 100), Corn” value (corn [7]; Postemergence, 16 g ai/ha) was 0 and the “Plant response rating (scale of 0 to 100 where 0 is no effect and 100 is complete control), Corn” value (corn [7]; Postemergence) was 0. For the same molecule, the “Corn plant response rating” value (corn [7]) was 5, the “Plant response rating, Corn” value (corn [7]) was 10 and the “Plant response rating (scale of 0 to 100), Lambsquarters” value (lambsquarters; Postemergence, 16 g ai/ha) was 15. For the same molecule, the “Plant response rating (scale of 0 to 100 where 0 is no effect and 100 is complete control), Lambsquarters” value (lambsquarters; Postemergence) was 35, the “Lambsquarters plant response rating” value (lambsquarters) was 35 and the “Plant response rating, Lambsquarters” value (lambsquarters; [19]) was 70. For the same molecule, the “Plant response rating (scale of 0 to 100), Ragweed” value (ragweed [8]; Postemergence, 16 g ai/ha) was 5, the “Plant response rating (scale of 0 to 100 where 0 is no effect and 100 is complete control), Ragweed” value (ragweed [8]; Postemergence) was 5 and the “Ragweed plant response rating” value (ragweed [8]) was 10. For the same molecule, the “Plant response rating, Ragweed” value (ragweed [8]; [19]) was 10, the “Plant response rating (scale of 0 to 100), Soybean” value (soybean [9]; Postemergence, 16 g ai/ha) was 10 and the “Plant response rating (scale of 0 to 100 where 0 is no effect and 100 is complete control), Soybean” value (soybean [9]; Postemergence) was 10. For the same molecule, the “Soybean plant response rating” value (soybean [9]) was 25, the “Plant response rating, Soybean” value (soybean [9]; [19]) was 35 and the “Plant response rating (scale of 0 to 100), Waterhemp” value (waterhemp; Postemergence, 16 g ai/ha) was 10. The “Plant response rating (scale of 0 to 100 where 0 is no effect and 100 is complete control), Waterhemp” value (waterhemp; Postemergence) was 10, the “Waterhemp plant response rating” value (waterhemp) was 10 and the “Plant response rating, Waterhemp” value (waterhemp; [19]) was 65. The “Plant response rating (scale of 0 to 100), Velvetleaf” value (velvetleaf [10]; Postemergence, 16 g ai/ha) was 10, the “Plant response rating (scale of 0 to 100 where 0 is no effect and 100 is complete control), Velvetleaf” value (velvetleaf [10]; Postemergence) was 15 and the “Velvetleaf plant response rating” value (velvetleaf [10]) was 15. For the same molecule, the “Plant response rating, Velvetleaf” value (velvetleaf [10]; [19]) was 20.

With `CCc1cc(C(=O)NC2CC2)nn1Cc1ccnc(C(F)(F)F)c1` [Compound 76] the “Wheat plant response rating” value (wheat [1]; [11]) was 30, the “Wheat plant response rating” value (wheat [1]; [12]) was 90 and the “Crabgrass, Large plant response rating” value (crabgrass, large; [13]) was 100. For the same molecule, the “Crabgrass, Large plant response rating” value (crabgrass, large; [14]) was 80, the “Foxtail, Giant plant response rating” value (foxtail, giant; [13]) was 100 and the “Foxtail, Giant plant response rating” value (foxtail, giant; [14]) was 80. For the same molecule, the “Morningglory plant response rating” value (morningglory; [13]) was 100, the “Morningglory plant response rating” value (morningglory; [14]) was 70 and the “Velvetleaf plant response rating” value (velvetleaf [2]; [13]) was 90. The “Velvetleaf plant response rating” value (velvetleaf [2]; [14]) was 30, the “Corn plant response rating” value (corn [3]; [13]) was 90 and the “Corn plant response rating” value (corn [3]; [14]) was 80. The “Plant response rating (scale of 0 to 100), Pigweed” value (pigweed; Preemergence, 250 g ai/ha) was 100, the “Pigweed plant response rating” value (pigweed; [16]) was 100 and the “Plant response rating, Pigweed” value (pigweed; [17]) was 100. The “Pigweed plant response rating” value (pigweed; [18]) was 100, the “Plant response rating (scale of 0 to 100), Ragweed” value (ragweed [4]; Preemergence, 250 g ai/ha) was 100 and the “Ragweed plant response rating” value (ragweed [4]; [16]) was 90. For the same molecule, the “Plant response rating, Ragweed” value (ragweed [4]; [17]) was 100, the “Ragweed plant response rating” value (ragweed [4]; [18]) was 100 and the “Plant response rating (scale of 0 to 100), Soybean” value (soybean [5]; Preemergence, 250 g ai/ha) was 100. For the same molecule, the “Soybean plant response rating” value (soybean [5]; [16]) was 80, the “Plant response rating, Soybean” value (soybean [5]; [17]) was 98 and the “Soybean plant response rating” value (soybean [5]; [18]) was 98. The “Plant response rating (scale of 0 to 100 where 0 is no effect and 100 is complete control), Wheat” value (wheat [6]; Postemergence) was 0, the “Wheat plant response rating” value (wheat [6]) was 5 and the “Plant response rating, Wheat” value (wheat [6]; [20]) was 5. The “Plant response rating, Wheat” value (wheat [6]; [19]) was 5, the “Plant response rating (scale of 0 to 100 where 0 is no effect and 100 is complete control), Corn” value (corn [7]; Postemergence) was 5 and the “Corn plant response rating” value (corn [7]) was 10. The “Plant response rating, Corn” value (corn [7]) was 20, the “Plant response rating (scale of 0 to 100 where 0 is no effect and 100 is complete control), Lambsquarters” value (lambsquarters; Postemergence) was 75 and the “Lambsquarters plant response rating” value (lambsquarters) was 75. For the same molecule, the “Plant response rating, Lambsquarters” value (lambsquarters; [20]) was 85, the “Plant response rating, Lambsquarters” value (lambsquarters; [19]) was 85 and the “Plant response rating (scale of 0 to 100 where 0 is no effect and 100 is complete control), Ragweed” value (ragweed [8]; Postemergence) was 55. For the same molecule, the “Ragweed plant response rating” value (ragweed [8]) was 75, the “Plant response rating, Ragweed” value (ragweed [8]; [20]) was 90 and the “Plant response rating, Ragweed” value (ragweed [8]; [19]) was 75. The “Plant response rating (scale of 0 to 100 where 0 is no effect and 100 is complete control), Soybean” value (soybean [9]; Postemergence) was 65, the “Soybean plant response rating” value (soybean [9]) was 75 and the “Plant response rating, Soybean” value (soybean [9]; [20]) was 98. For the same molecule, the “Plant response rating, Soybean” value (soybean [9]; [19]) was 95, the “Plant response rating (scale of 0 to 100 where 0 is no effect and 100 is complete control), Waterhemp” value (waterhemp; Postemergence) was 60 and the “Waterhemp plant response rating” value (waterhemp) was 70. The “Plant response rating, Waterhemp” value (waterhemp; [20]) was 100, the “Plant response rating, Waterhemp” value (waterhemp; [19]) was 75 and the “Plant response rating (scale of 0 to 100 where 0 is no effect and 100 is complete control), Velvetleaf” value (velvetleaf [10]; Postemergence) was 15. For the same molecule, the “Velvetleaf plant response rating” value (velvetleaf [10]) was 40, the “Plant response rating, Velvetleaf” value (velvetleaf [10]; [20]) was 80 and the “Plant response rating, Velvetleaf” value (velvetleaf [10]; [19]) was 60.

Source: patent US20150105252A1, “SUBSTITUTED PYRAZOLES AS HERBICIDES” (E I DU PONT DE NEMOURS AND COMPANY, priority 2013, published 2015)
